# Test results reported in patent US10227344B2, “CK2 inhibitors, compositions and methods thereof” (Polaris Pharmaceuticals, Inc., priority 2016, dated 2019).
# How the values were obtained:
# Format in all cases: cell-based
# U266 = assay: Cancer cell panel, cell viability (resazurin): multiple myeloma, U266; settings: 72 hours, labelled drug combined with Example 3
# Daudi = assay: Cancer cell panel, cell viability (resazurin): Burkitt's Lymphoma, Daudi; settings: 72 hours, labelled drug combined with Example 3
# Protocol: (§1) Cells were plated in 96-well plates and treated for 72 hours with a serially diluted CK2 inhibitor or anti-cancer drug or their combination. The suspension cell lines were treated right after plating, while the adherent cells were allowed to attach overnight prior to the start of the treatment.
# (§2) Cell viability was determined by adding resazurin to cell cultures and measuring fluorescence with a plate reader. Relative cell viability was calculated by dividing the cell viability signal from a test sample by that of a non-treated control. […] Bliss Independence and Highest Single Agent models were used to determine if there is synergy, additivity or antagonism between the CK2 inhibitor and an anti-cancer drug.
# MDA-MB-453 = assay: Cancer cell panel, cell viability (resazurin): Breast, MDA-MB-453; settings: MDA-MB-453 (Breast), 72 hours; labelled drug combined with Example 3
# SkBr-3 = assay: Cancer cell panel, cell viability (resazurin): Breast, SkBr-3; settings: SkBr-3 (Breast), 72 hours; labelled drug combined with Example 3
# ZR-75-1 = assay: Cancer cell panel, cell viability (resazurin): Breast, ZR-75-1; settings: ZR-75-1 (Breast), 72 hours; labelled drug combined with Example 3
# RPMI8226 = assay: Cancer cell panel, cell viability (resazurin): multiple myeloma, RPMI8226; settings: 72 hours, labelled drug combined with Example 3
# Protocol: as §1, §2
# Caki-1 = assay: Cancer cell panel, cell viability (resazurin): Renal, Caki-1; settings: Caki-1 (Renal), 72 hours; labelled drug combined with Example 3
# Protocol: as §1, §2
# H2122 = assay: Cancer cell panel, cell viability (resazurin): NSCLC, H2122; settings: 72 hours, labelled drug combined with Example 3
# T47D = assay: Cancer cell panel, cell viability (resazurin): Breast, T47D; settings: 72 hours, labelled drug combined with Example 3
# Protocol: as §1, §2
# PC3 = assay: Cancer cell panel, cell viability (resazurin): Prostate, PC3; settings: 72 hours, labelled drug combined with Example 3
# Protocol: as §1, §2
# OVCAR-3 = assay: Cancer cell panel, cell viability (resazurin): Ovarian, OVCAR-3; settings: OVCAR-3 (Ovarian), 72 hours; labelled drug combined with Example 3
# Protocol: as §1, §2
# HL60 = assay: Cancer cell panel, cell viability (resazurin): Leukemia, HL60; settings: 72 hours, labelled drug combined with Example 3
# BT-474 = assay: Cancer cell panel, cell viability (resazurin): Breast, BT-474; settings: BT-474 (Breast), 72 hours; labelled drug combined with Example 3
# Protocol: as §1, §2
# BT-20 = assay: Cancer cell panel, cell viability (resazurin): Breast, BT-20; settings: BT-20 (Breast), 72 hours; labelled drug combined with Example 3
# WM-115 = assay: Cancer cell panel, cell viability (resazurin): Melanoma, WM-115; settings: WM-115 (Melanoma), 72 hours; labelled drug combined with Example 3
# A2780 = assay: Cancer cell panel, cell viability (resazurin): Ovarian, A2780; settings: 72 hours, labelled drug combined with Example 3
# Protocol: as §1, §2
# MDA-MB-231 = assay: Cancer cell panel, cell viability (resazurin): Breast, MDA-MB-231; settings: MDA-MB-231 (Breast), 72 hours; labelled drug combined with Example 3
# H23 = assay: Cancer cell panel, cell viability (resazurin): NSCLC, H23; settings: 72 hours, labelled drug combined with Example 3
# K562 = assay: Cancer cell panel, cell viability (resazurin): Leukemia, K562; settings: 72 hours, labelled drug combined with Example 3
# Protocol: as §1, §2
# SK-MEL-24 = assay: Cancer cell panel, cell viability (resazurin): Melanoma, SK-MEL-24; settings: SK-MEL-24 (Melanoma), 72 hours; labelled drug combined with Example 3
# LoVo = assay: Cancer cell panel, cell viability (resazurin): Colon, LoVo; settings: 72 hours, labelled drug combined with Example 3
# 786-O = assay: Cancer cell panel, cell viability (resazurin): Renal, 786-O; settings: 786-O (Renal), 72 hours; labelled drug combined with Example 3
# HT29 = assay: Cancer cell panel, cell viability (resazurin): Colon, HT29; settings: 72 hours, labelled drug combined with Example 3
# H1299 = assay: Cancer cell panel, cell viability (resazurin): NSCLC, H1299; settings: 72 hours, labelled drug combined with Example 3
# MOLT4 = assay: Cancer cell panel, cell viability (resazurin): Leukemia, MOLT4; settings: 72 hours, labelled drug combined with Example 3
# Protocol: as §1, §2
# H1975 = assay: Cancer cell panel, cell viability (resazurin): NSCLC, H1975; settings: 72 hours, labelled drug combined with Example 3
# Protocol: as §1, §2
# Caov-3 = assay: Cancer cell panel, cell viability (resazurin): Ovarian, Caov-3; settings: Caov-3 (Ovarian), 72 hours; labelled drug combined with Example 3
# SKOV-3 = assay: Cancer cell panel, cell viability (resazurin): Ovarian, SKOV-3; settings: SKOV-3 (Ovarian), 72 hours; labelled drug combined with Example 3
# ACHN = assay: Cancer cell panel, cell viability (resazurin): Renal, ACHN; settings: 72 hours, labelled drug combined with Example 3
# Colo205 = assay: Cancer cell panel, cell viability (resazurin): Colon, Colo205; settings: 72 hours, labelled drug combined with Example 3
# DLD-1 = assay: Cancer cell panel, cell viability (resazurin): Colon, DLD-1; settings: DLD-1 (Colon), 72 hours; labelled drug combined with Example 3
# Protocol: as §1, §2
# EOL-1 = assay: Cancer cell panel, cell viability (resazurin): Leukemia, EOL-1; settings: EOL-1 (Leukemia), 72 hours; labelled drug combined with Example 3
# SK-MEL-3 = assay: Cancer cell panel, cell viability (resazurin): Melanoma, SK-MEL-3; settings: SK-MEL-3 (Melanoma), 72 hours; labelled drug combined with Example 3
# BxPC3 = assay: Cancer cell panel, cell viability (resazurin): Pancreatic, BxPC3; settings: 72 hours, labelled drug combined with Example 3
# U87MG = assay: Cancer cell panel, cell viability (resazurin): Glioblastoma, U87MG; settings: 72 hours, labelled drug combined with Example 3
# Panc-1 = assay: Cancer cell panel, cell viability (resazurin): Pancreatic, Panc-1; settings: Panc-1 (Pancreatic), 72 hours; labelled drug combined with Example 3
# Protocol: as §1, §2
# H460 = assay: Cancer cell panel, cell viability (resazurin): NSCLC, H460; settings: 72 hours, labelled drug combined with Example 3
# A375 = assay: Cancer cell panel, cell viability (resazurin): Melanoma, A375; settings: 72 hours, labelled drug combined with Example 3
# NAMALWA = assay: Cancer cell panel, cell viability (resazurin): Burkitt's Lymphoma, NAMALWA; settings: 72 hours, labelled drug combined with Example 3
# Protocol: as §1, §2
structure (smiles),measurement,setting,value
"C#Cc1cccc(Nc2ncnc3cc(OCCOC)c(OCCOC)cc23)c1 [Erlotinib, erlotinib]","synergy, additivity or antagonism of the combination of Example 3 with the anti-cancer drug",U266,+ (Additive relative to each agent alone (CI = 0.9-1 by Bliss Independence Model and <0.9 by Highest Single Agent Model))
same,"synergy, additivity or antagonism of the combination of Example 3 with the anti-cancer drug",Daudi,+ + (Slight synergy relative to each agent alone (CI = 0.75-0.9 by Bliss Independence Model))
same,"synergy, additivity or antagonism of the combination of Example 3 with the anti-cancer drug",MDA-MB-453,+ + (Slight synergy relative to each agent alone (CI = 0.75-0.9 by Bliss Independence Model))
same,"synergy, additivity or antagonism of the combination of Example 3 with the anti-cancer drug",SkBr-3,+ + (Slight synergy relative to each agent alone (CI = 0.75-0.9 by Bliss Independence Model))
same,"synergy, additivity or antagonism of the combination of Example 3 with the anti-cancer drug",ZR-75-1,+ (Additive relative to each agent alone (CI = 0.9-1 by Bliss Independence Model and <0.9 by Highest Single Agent Model))
same,"synergy, additivity or antagonism of the combination of Example 3 with the anti-cancer drug",RPMI8226,+ + + (Synergy relative to each agent alone (CI = 0.4-0.74 by Bliss Independence Model))
same,"synergy, additivity or antagonism of the combination of Example 3 with the anti-cancer drug",Caki-1,+ (Additive relative to each agent alone (CI = 0.9-1 by Bliss Independence Model and <0.9 by Highest Single Agent Model))
same,"synergy, additivity or antagonism of the combination of Example 3 with the anti-cancer drug",H2122,+ + + + (Strong synergy relative to each agent alone (CI < 0.4 by Bliss Independence Model))
same,"synergy, additivity or antagonism of the combination of Example 3 with the anti-cancer drug",T47D,+ (Additive relative to each agent alone (CI = 0.9-1 by Bliss Independence Model and <0.9 by Highest Single Agent Model))
same,"synergy, additivity or antagonism of the combination of Example 3 with the anti-cancer drug",PC3,− (Slightly antagonistic relative to each agent alone (CI = 1.1-1.2 by Highest Single Agent Model))
same,"synergy, additivity or antagonism of the combination of Example 3 with the anti-cancer drug",OVCAR-3,+ (Additive relative to each agent alone (CI = 0.9-1 by Bliss Independence Model and <0.9 by Highest Single Agent Model))
same,"synergy, additivity or antagonism of the combination of Example 3 with the anti-cancer drug",HL60,+ + (Slight synergy relative to each agent alone (CI = 0.75-0.9 by Bliss Independence Model))
same,"synergy, additivity or antagonism of the combination of Example 3 with the anti-cancer drug",BT-474,+ + (Slight synergy relative to each agent alone (CI = 0.75-0.9 by Bliss Independence Model))
same,"synergy, additivity or antagonism of the combination of Example 3 with the anti-cancer drug",BT-20,+ + + (Synergy relative to each agent alone (CI = 0.4-0.74 by Bliss Independence Model))
same,"synergy, additivity or antagonism of the combination of Example 3 with the anti-cancer drug",WM-115,+ (Additive relative to each agent alone (CI = 0.9-1 by Bliss Independence Model and <0.9 by Highest Single Agent Model))
same,"synergy, additivity or antagonism of the combination of Example 3 with the anti-cancer drug",A2780,+ + (Slight synergy relative to each agent alone (CI = 0.75-0.9 by Bliss Independence Model))
same,"synergy, additivity or antagonism of the combination of Example 3 with the anti-cancer drug",MDA-MB-231,+ + (Slight synergy relative to each agent alone (CI = 0.75-0.9 by Bliss Independence Model))
same,"synergy, additivity or antagonism of the combination of Example 3 with the anti-cancer drug",H23,+ + + (Synergy relative to each agent alone (CI = 0.4-0.74 by Bliss Independence Model))
same,"synergy, additivity or antagonism of the combination of Example 3 with the anti-cancer drug",K562,+ + + (Synergy relative to each agent alone (CI = 0.4-0.74 by Bliss Independence Model))
same,"synergy, additivity or antagonism of the combination of Example 3 with the anti-cancer drug",SK-MEL-24,+ (Additive relative to each agent alone (CI = 0.9-1 by Bliss Independence Model and <0.9 by Highest Single Agent Model))
same,"synergy, additivity or antagonism of the combination of Example 3 with the anti-cancer drug",LoVo,+ (Additive relative to each agent alone (CI = 0.9-1 by Bliss Independence Model and <0.9 by Highest Single Agent Model))
same,"synergy, additivity or antagonism of the combination of Example 3 with the anti-cancer drug",786-O,+ + (Slight synergy relative to each agent alone (CI = 0.75-0.9 by Bliss Independence Model))
same,"synergy, additivity or antagonism of the combination of Example 3 with the anti-cancer drug",HT29,+ + (Slight synergy relative to each agent alone (CI = 0.75-0.9 by Bliss Independence Model))
same,"synergy, additivity or antagonism of the combination of Example 3 with the anti-cancer drug",H1299,+ (Additive relative to each agent alone (CI = 0.9-1 by Bliss Independence Model and <0.9 by Highest Single Agent Model))
same,"synergy, additivity or antagonism of the combination of Example 3 with the anti-cancer drug",MOLT4,+ + (Slight synergy relative to each agent alone (CI = 0.75-0.9 by Bliss Independence Model))
same,"synergy, additivity or antagonism of the combination of Example 3 with the anti-cancer drug",H1975,+ + (Slight synergy relative to each agent alone (CI = 0.75-0.9 by Bliss Independence Model))
same,"synergy, additivity or antagonism of the combination of Example 3 with the anti-cancer drug",Caov-3,+ + (Slight synergy relative to each agent alone (CI = 0.75-0.9 by Bliss Independence Model))
same,"synergy, additivity or antagonism of the combination of Example 3 with the anti-cancer drug",SKOV-3,+ + + (Synergy relative to each agent alone (CI = 0.4-0.74 by Bliss Independence Model))
same,"synergy, additivity or antagonism of the combination of Example 3 with the anti-cancer drug",ACHN,+ (Additive relative to each agent alone (CI = 0.9-1 by Bliss Independence Model and <0.9 by Highest Single Agent Model))
same,"synergy, additivity or antagonism of the combination of Example 3 with the anti-cancer drug",Colo205,+ + + (Synergy relative to each agent alone (CI = 0.4-0.74 by Bliss Independence Model))
same,"synergy, additivity or antagonism of the combination of Example 3 with the anti-cancer drug",DLD-1,+ + + (Synergy relative to each agent alone (CI = 0.4-0.74 by Bliss Independence Model))
same,"synergy, additivity or antagonism of the combination of Example 3 with the anti-cancer drug",EOL-1,+ (Additive relative to each agent alone (CI = 0.9-1 by Bliss Independence Model and <0.9 by Highest Single Agent Model))
same,"synergy, additivity or antagonism of the combination of Example 3 with the anti-cancer drug",SK-MEL-3,+ (Additive relative to each agent alone (CI = 0.9-1 by Bliss Independence Model and <0.9 by Highest Single Agent Model))
same,"synergy, additivity or antagonism of the combination of Example 3 with the anti-cancer drug",BxPC3,+ + + + (Strong synergy relative to each agent alone (CI < 0.4 by Bliss Independence Model))
same,"synergy, additivity or antagonism of the combination of Example 3 with the anti-cancer drug",U87MG,+ (Additive relative to each agent alone (CI = 0.9-1 by Bliss Independence Model and <0.9 by Highest Single Agent Model))
same,"synergy, additivity or antagonism of the combination of Example 3 with the anti-cancer drug",Panc-1,+ (Additive relative to each agent alone (CI = 0.9-1 by Bliss Independence Model and <0.9 by Highest Single Agent Model))
same,"synergy, additivity or antagonism of the combination of Example 3 with the anti-cancer drug",H460,+ + + + (Strong synergy relative to each agent alone (CI < 0.4 by Bliss Independence Model))
same,"synergy, additivity or antagonism of the combination of Example 3 with the anti-cancer drug",A375,+ + (Slight synergy relative to each agent alone (CI = 0.75-0.9 by Bliss Independence Model))
same,"synergy, additivity or antagonism of the combination of Example 3 with the anti-cancer drug",NAMALWA,+ (Additive relative to each agent alone (CI = 0.9-1 by Bliss Independence Model and <0.9 by Highest Single Agent Model))
